In test [1] the test system is A549. Briefly: Antitumor activity against human A549 cells after 3 days by SRB assay. The class given is functional, cell-based. Conditions: A549, 72 h. On the technique in general: Sulforhodamine B stains cellular protein and so reports cell mass.
Test [2] concerns HeLa. Briefly: Antitumor activity against human HeLa cells after 3 days by SRB assay. It counts as functional, cell-based. Conditions: 72 h.
In test [3] the test system is A549. Briefly: Potency index, ratio of IC50 for rhein to IC50 for test compound against human A549 cells after 3 days by SRB assay. The class given is functional.
Test [4] has as its system HeLa. Briefly: Potency index, ratio of IC50 for rhein to IC50 for test compound against human HeLa cells after 3 days by SRB assay. It counts as functional.

By IC50 is commonly meant the midpoint of a concentration-inhibition curve. Low values mean greater potency, high ones weaker potency.

For the compound `O=C1c2c(O)cccc2C(=O)c2c1c(O)cc1nc(N3CCCC3)sc21`, the results for the IC50 in test [1] and in test [2] were 148 µM and 44.8 µM, respectively.

Consider `O=C1c2c(O)cccc2C(=O)c2c1c(O)cc1nc(N3CCOCC3)sc21`, for which the IC50 in test [1] is 33.4 µM; in test [2], 30.3 µM.

With `CN(C)CCN1CCN(c2nc3cc(O)c4c(c3s2)C(=O)c2cccc(O)c2C4=O)CC1`, the results for the half-inhibitory concentration (IC50) in test [1] and in test [2] were 32.8 µM and greater than 100 µM, respectively.

Turning to `CN(CC(O)CO)c1nc2cc(O)c3c(c2s1)C(=O)c1cccc(O)c1C3=O` (centres undefined), the results for the IC50 in test [1] and in test [2] were 30.4 µM and 23.2 µM, respectively.

As for `CC1CCN(c2nc3cc(O)c4c(c3s2)C(=O)c2cccc(O)c2C4=O)CC1`, the IC50 in test [1] came to 66 µM; in test [2], 60.4 µM.

`O=CN1CCCN(c2nc3cc(O)c4c(c3s2)C(=O)c2cccc(O)c2C4=O)CC1`: the 50% inhibitory concentration (IC50) in test [1] was 15.2 µM; in test [2], 19.7 µM.

`O=C(O)c1cc(O)c2c(c1)C(=O)c1cccc(O)c1C2=O` [RHEIN]: the 50% inhibitory concentration (IC50) in test [1] stood at 95.8 µM; in test [2], 92.2 µM.

On to `O=C1c2c(O)cccc2C(=O)c2c1c(O)cc1nc(N3CCN(C4CC4)CC3)sc21`, for which the concentration for half-maximal inhibition (IC50) came out at 65.7 µM in test [1] and 58.1 µM in test [2].

With `CN1CCN(c2nc3cc(O)c4c(c3s2)C(=O)c2cccc(O)c2C4=O)CC1`, the IC50 in test [1] was 20.2 µM; in test [2], 27.4 µM.

Consider `O=C1c2c(O)cccc2C(=O)c2c1c(O)cc1nc(N3CCN(CCO)CC3)sc21`, for which the IC50 in test [1] was 6.5 µM; in test [2], 4.5 µM.

For the compound `O=C1c2c(O)cccc2C(=O)c2c1c(O)cc1nc(N3CCCC(O)C3)sc21` (centres undefined), the IC50 in test [1] amounted to 21.1 µM; in test [2], 26.9 µM.

In the case of `CC1CCN(CCN2CCN(c3nc4cc(O)c5c(c4s3)C(=O)c3cccc(O)c3C5=O)CC2)CC1`, the concentration for half-maximal inhibition (IC50) in test [1] is 38.2 µM; in test [2], 82.1 µM.

Turning to `CCN1CCN(CCN2CCN(c3nc4cc(O)c5c(c4s3)C(=O)c3cccc(O)c3C5=O)CC2)CC1`, the concentration for half-maximal inhibition (IC50) was found to be 23.4 µM in test [1] and 71.3 µM in test [2].

On to `CC(C)N(CCN1CCN(c2nc3cc(O)c4c(c3s2)C(=O)c2cccc(O)c2C4=O)CC1)C(C)C`, for which the IC50 in test [1] and in test [2] was greater than 100 µM throughout.

With `CCN(CC)CCN1CCN(c2nc3cc(O)c4c(c3s2)C(=O)c2cccc(O)c2C4=O)CC1`, the IC50 in test [1] and in test [2] was greater than 100 µM each time.

In the case of `O=C1c2c(O)cccc2C(=O)c2c1c(O)cc1nc(N3CCCCCC3)sc21`, the 50% inhibitory concentration (IC50) in test [1] is 39.4 µM; in test [2], 41 µM.

For `O=C1c2c(O)cccc2C(=O)c2c1c(O)cc1nc(N3CCN(CCN4CCCCC4)CC3)sc21`, the concentration for half-maximal inhibition (IC50) stood at 46.4 µM in test [1] and 86.9 µM in test [2].

As to `CN1CCN(CCN2CCN(c3nc4cc(O)c5c(c4s3)C(=O)c3cccc(O)c3C5=O)CC2)CC1`, the IC50 in test [1] was found to be 24.2 µM; in test [2], 80.1 µM.

Turning to `CC(C)N1CCN(CCN2CCN(c3nc4cc(O)c5c(c4s3)C(=O)c3cccc(O)c3C5=O)CC2)CC1`, the values for the IC50 in test [1] and in test [2] were 54 µM and greater than 100 µM, respectively.

Take `CC(C)N1CCN(c2nc3cc(O)c4c(c3s2)C(=O)c2cccc(O)c2C4=O)CC1`: the IC50 was 15 µM in test [1] and 14.8 µM in test [2].

In the case of `CCCCN(CCCC)CCN1CCN(c2nc3cc(O)c4c(c3s2)C(=O)c2cccc(O)c2C4=O)CC1`, the 50% inhibitory concentration (IC50) in test [1] was 57.1 µM; in test [2] it was greater than 100 µM.

For `CCOC(=O)N1CCN(c2nc3cc(O)c4c(c3s2)C(=O)c2cccc(O)c2C4=O)CC1`, the IC50 in test [1] is 54.8 µM; in test [2], 68.4 µM.

For `O=C1c2c(O)cccc2C(=O)c2c1c(O)cc1nc(N3CCCCC3CCO)sc21` (centres undefined), the 50% inhibitory concentration (IC50) turned out to be 19.6 µM in test [1] and 16.7 µM in test [2].

With `CC(C)N(c1nc2cc(O)c3c(c2s1)C(=O)c1cccc(O)c1C3=O)C(C)C`, the IC50 in test [1] was greater than 100 µM; in test [2], 118 µM.

Regarding `O=C1c2c(O)cccc2C(=O)c2c1c(O)cc1nc(N3CCN(CCN4CCOCC4)CC3)sc21`, the concentration for half-maximal inhibition (IC50) in test [1] and in test [2] was greater than 100 µM throughout.

For the compound `O=C1c2c(O)cccc2C(=O)c2c1c(O)cc1nc(N3CCN(CCN4CCCC4)CC3)sc21`, the IC50 in test [1] is 70.3 µM; in test [2], 81.1 µM.

Regarding `CCN(CC)c1nc2cc(O)c3c(c2s1)C(=O)c1cccc(O)c1C3=O`, the IC50 in test [1] turned out to be 108 µM; in test [2] it was 86.7 µM.

As to `CN(C)C1CCN(c2nc3cc(O)c4c(c3s2)C(=O)c2cccc(O)c2C4=O)CC1`, the IC50 in test [1] stood at 6.3 µM; in test [2], 11.8 µM.

With `O=C1c2c(O)cccc2C(=O)c2c1c(O)cc1nc(N3CCCCC3)sc21`, the half-maximal inhibitory concentration (IC50) was greater than 100 µM in test [1] and 55.8 µM in test [2].

In the case of `CCN1CCN(c2nc3cc(O)c4c(c3s2)C(=O)c2cccc(O)c2C4=O)CC1`, the half-maximal inhibitory concentration (IC50) came to 5.4 µM in test [1] and 4.3 µM in test [2]. Besides, the “Ratio IC50” value in test [3] and in test [4] was 30 throughout.

On to `CN(CCO)c1nc2cc(O)c3c(c2s1)C(=O)c1cccc(O)c1C3=O`, for which the IC50 was 45.9 µM in test [1] and 30.6 µM in test [2].

The record behind these values is ChEMBL document CHEMBL3352091, “Natural product-based design, synthesis and biological evaluation of anthra[2,1-d]thiazole-6,11-dione derivatives from rhein as novel antitumour agents” (Eur J Med Chem, 2014).
